Where two headings read alike, the source gives them in different places.
Experiment: Biodistribution and biodegradation after i.v. application (HPLC of MTO, SQUID/MRX of iron oxide)
Type: in vivo, New Zealand White Rabbits
Details: for concentration at 24 h: New Zealand White, rabbit, iv, regular systemic dose of pure MTO (10 mg MTO/m2 body surface), n=6, HPLC
Experimental: For the animal experiments New Zealand White Rabbits were used. The animals, weighing about 4.5 - 5.2 kg, were treated (i.v.) with ferrofluid bound MTO containing a drug amount of 10% compared to the regular systemic dose which requires 10 mg MTO/m2 body surface (n=5). The other study group (n=6) received the regular systemic dose of pure MTO. After 24h hours the animals were sacrificed and the organs harvested. Complete organs of liver and kidneys were processed and MTO was extracted for HPLC-analysis. Tissue homogenates have also been measured by SQUID.

## O=C1c2c(O)ccc(O)c2C(=O)c2c(NCCNCCO)ccc(NCCNCCO)c21 [pure MTO, mitoxantron]
kidney, read-out: MTO concentration in kidneys
  concentration at 24 h: 8500 ng/g
liver, read-out: MTO concentration in liver tissue
  concentration at 24 h: 190 ng/g
Pure i.v. injection of MTO, regular systemic dose, 24h
  MTO enrichment in kidneys relative to liver: 44 fold

From patent publication EP2508171B1, “Pharmaceutical magnetic nano-particle composition” (Universitätsklinikum Erlangen, priority 2011, dated 2012)
